Measured values from patent publication US20240400546A1, “COMPOUNDS AND USES THEREOF” (JANSSEN PHARMACEUTICA NV, priority 2016, published 2024).

Assays:
Assay type in all cases: cell-based
[1] = target: T1, SCD5 (Homo sapiens, UniProt Q86SK9); test: Growth inhibition of humanized yeast expressing SCD5 as sole desaturase; conditions: for half-maximal inhibitory concentration (IC50), SCD5 humanized strain: FIG. 6
T1 construct: host or cells: S. cerevisiae ole1Δ strain, plasmid pRS316 with TDH3 promoter and CYC1 terminator
T1 sequence (Q86SK9 1-330): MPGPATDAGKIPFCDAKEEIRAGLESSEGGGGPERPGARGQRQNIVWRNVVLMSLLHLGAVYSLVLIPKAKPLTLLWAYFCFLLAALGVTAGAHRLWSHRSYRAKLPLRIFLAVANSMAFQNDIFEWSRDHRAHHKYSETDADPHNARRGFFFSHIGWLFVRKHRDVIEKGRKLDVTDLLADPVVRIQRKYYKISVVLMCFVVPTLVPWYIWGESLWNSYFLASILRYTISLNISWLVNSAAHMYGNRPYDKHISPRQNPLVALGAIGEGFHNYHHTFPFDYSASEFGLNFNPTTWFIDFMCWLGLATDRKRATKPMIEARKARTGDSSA
Method: (§1) Strain ole1Δ (yeast ole1 deletion mutant) was constructed by deleting OLE1 with NAT-MX6 in BY4741, amplifying the deletion cassette from the genomic DNA of the resulting strain with primers flanking the ORF by 1000 bp upstream and downstream, transforming the resulting deletion cassette into W303 pdr1Δ pdr3Δ, and plating transformants on YPD media containing G418 (200 μg/mL) and nourseothricin (100 μg/mL) with 0.01% TWEEN®-20 and 0.5 mM oleic and palmitoleic acids.
(§2) The coding sequence of yeast OLE1 was also cloned into this plasmid). These clones were then transformed into the ole1Δ strain and plated on CSM-Ura media (CSM lacking uracil) with 2% glucose (w/v) and independent colonies were isolated and amplified.
(§3) All compound profiling experiments were performed using the same basic protocol. Different genetic backgrounds (e.g., gene deletions) or conditions (e.g., addition of oleic and palmitoleic acid) were replaced as indicated below.
(§4) Yeast were cultured using standard techniques in complete synthetic media (CSM) and yeast nitrogen base supplemented with 2% (w/v) carbon source (glucose, raffinose, or galactose) to regulate the expression of the toxic disease protein. An initial starter culture was inoculated in 3 mL CSM-Glucose media and incubated overnight in a 30° C. shaker incubator (225 rpm). Saturated morning cultures were then diluted 1:20 in fresh CSM-Raffinose media and grown for 6 h to an OD600 (optical density) of ˜0.4-0.8 at 30° C. with shaking.
(§5) Compound administration was performed in two separate steps. First, 15 μL of CSM-Galactose (induces expression of toxic protein) was dispensed into clear 384 well assay plates using a MULTIDROP™ Combi reagent dispenser. […] The cultures described above were then diluted to a 2× concentration (0.03 and 0.08 for alpha-synuclein and ApoE, final OD600 of 0.015 and 0.04) in CSM-Galactose. For wild-type and Ole1/SCD1/SCD5 plasmid-containing strains, the 2× cell density was 0.02. […] For 96-well assays (FIGS. 1A and 1B), compound dilutions in DMSO were generated in 96 well plates and 1 μL was manually pipetted into 96 well clear bottom assay plates.
(§6) For experiments using a plasmid-borne copy of Ole1, SCD1, or SCD5 (FIGS. 3B, 6, and 7), media lacking uracil (SX-Ura, where X is glucose, raffinose, or galactose), was used for all steps of the compound profiling protocol to ensure its maintenance throughout the assay.
(§7) After yeast delivery, assay plates were incubated under humidified conditions at 30° C. for 24 to 40 h. ApoE4 rescue experiments were stopped at 24 h, aSyn experiments at 40 h, Ole1 at 24 h, and SCD1/SCD5 at 40 h. The growth of yeast was monitored by reading the OD600 of each well using a microplate reader (Perkin Elmer EnVision™).

[2] = target: T2, SCD1 (Homo sapiens, UniProt O00767); test: Growth inhibition of humanized yeast expressing SCD1 as sole desaturase; conditions: for half-maximal inhibitory concentration (IC50), SCD1 humanized strain: FIG. 6
T2 construct: host or cells: S. cerevisiae ole1Δ strain, plasmid pRS316 with TDH3 promoter and CYC1 terminator
T2 sequence (O00767 1-359): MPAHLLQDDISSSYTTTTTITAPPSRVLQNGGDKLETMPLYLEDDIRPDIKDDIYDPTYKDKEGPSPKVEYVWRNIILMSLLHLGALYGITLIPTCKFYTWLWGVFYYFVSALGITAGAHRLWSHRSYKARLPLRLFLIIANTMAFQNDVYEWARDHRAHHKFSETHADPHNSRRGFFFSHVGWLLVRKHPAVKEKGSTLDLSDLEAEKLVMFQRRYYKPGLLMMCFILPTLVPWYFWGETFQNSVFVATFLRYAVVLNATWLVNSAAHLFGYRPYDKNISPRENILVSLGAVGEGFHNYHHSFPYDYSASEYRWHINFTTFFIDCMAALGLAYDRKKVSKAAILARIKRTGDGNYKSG
Procedure, shortened: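 ole1Δ yeast (W303 pdr1Δ pdr3Δ background) carried plasmid-borne human SCD1, human SCD5 or yeast Ole1 as the sole desaturase and were grown in uracil-lacking galactose medium in 384-well plates. Starting 2× density was OD600 0.02, with incubation at 30 °C. Growth was read as OD600 at 24 h for Ole1 and at 40 h for SCD1 and SCD5.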

[3] = target: T3, Ole1 (Saccharomyces cerevisiae, UniProt P21147); test: Growth inhibition of yeast expressing Ole1 as sole desaturase; conditions: for OLE1 % Max Inhibition: yeast expressing Ole1 as sole desaturase; for Sensitivity of yeast expressing OLE1 to known SCD1/SCD5 inhibitors: FIG. 6
T3 construct: expressed in transfected cells; host or cells: S. cerevisiae ole1Δ strain (W303 pdr1Δ pdr3Δ background), plasmid pRS316 with TDH3 promoter and CYC1 terminator
T3 sequence (P21147 1-510): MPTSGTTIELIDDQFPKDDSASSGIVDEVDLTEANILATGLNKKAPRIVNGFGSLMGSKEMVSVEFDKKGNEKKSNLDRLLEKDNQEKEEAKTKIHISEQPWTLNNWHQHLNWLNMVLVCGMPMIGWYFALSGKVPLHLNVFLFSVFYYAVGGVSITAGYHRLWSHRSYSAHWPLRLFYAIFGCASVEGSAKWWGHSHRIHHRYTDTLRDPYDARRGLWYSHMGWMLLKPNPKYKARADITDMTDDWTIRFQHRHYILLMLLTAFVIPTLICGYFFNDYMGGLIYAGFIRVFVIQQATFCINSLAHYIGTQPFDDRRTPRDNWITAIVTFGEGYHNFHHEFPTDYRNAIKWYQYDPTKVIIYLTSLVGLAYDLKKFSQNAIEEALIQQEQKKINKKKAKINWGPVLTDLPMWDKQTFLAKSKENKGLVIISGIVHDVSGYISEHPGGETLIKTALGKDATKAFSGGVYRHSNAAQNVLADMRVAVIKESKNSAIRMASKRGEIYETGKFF
Method: as §1, §2, §3, §4, §5, §6, §7

[4] = system: yeast strains expressing the human protein α-synuclein; test: Yeast rescue assay, α-synuclein toxicity (OD600 growth); conditions: Homo sapiens, 40 h
Method: In a standard yeast assay, a single-use aliquot of cells was thawed on ice and diluted into CSM/glucose (5 mL). Cultures were grown for 8 hours at 30° C. This pre-growth enables the yeast to exit the thaw and begin to grow without expressing aSyn or ApoE4. After 8 hours, cell density (OD600) was determined and cultures diluted to an OD600 of 0.01 in CSM/raffinose for an overnight culture phase at 30° C. During this period, the active glucose repression of the GAL1 promoter was relieved; however, expression of the α-Syn/ApoE4 genes were not yet induced. After ˜16 hours of growth, cultures attain an OD600 of 0.4-0.8 and were ready to apply to assay plates containing compound.
Compound profiling assays were executed in clear-bottom 384 well plates. First, compound plates were thawed at room temperature for 45′, centrifuged at 1,000×g for 1 minute, and the foil removed. Clear 384 well assay plates were then filled with 15 μL of CSM/galactose. Both compound and media-containing plates were arranged on the Janus workstation and a compound pin tool (384×100 nL slotted pins) used to deliver 100 nL of compounds to each well according to the well map of the compound plate. Based on the previous serial dilution, the final concentration of compound ranged from […] to 12.5 nM. The pin tool was washed iteratively with both 50% DMSO and 100% ethanol between each assay plate. After delivering compound to each assay plate, the overnight CSM/raffinose aSyn or ApoE4 cultures were added at a 2× cell density (0.04 for aSyn and 0.08 for ApoE4) in CSM/galactose to achieve a final assay OD600 of 0.02 and 0.04 for aSyn and ApoE, respectively. The cultures (15 μL per well) were then dispensed to the compound-containing 384 well assay plates using an automated plate filler. Plates were incubated in a humidified 30° C. incubator for 40 or 24 hours for aSyn and ApoE4, respectively. The OD600 of each assay plate was then read with a microplate reader (e.g., Perkin Elmer Envision).
The efficacy and potency of compounds were calculated according to the following. Raw data (OD600 values) were first background corrected to account for OD600 contributed by the plate and media itself. The efficacy (percent above DMSO, herein referred to as “Emax”) was calculated according to the equation: (Experimental well−DMSO control well)/(DMSO control well)*100. […] Normalized dose-response data was fit with a logistic regression curve using Spotfire (TIBCO), or similar curve-fitting software package. EC50 values were then reported along with EMax to provide both efficacy and potency measures for each analog and enable further compound design.

[5] = humanized yeast expressing SCD5
[6] = humanized yeast expressing SCD1
[7] = humanized yeast expressing human SCD5
[8] = humanized yeast expressing human SCD1

## COc1ccc(-c2noc(C3CCN(C(=O)[C@@H]4CC(=O)N(c5ccc(C)c(C)c5)C4)CC3)n2)cc1OC [Compound 68]
[1]; [5]
  IC50: > 45 µM
  SCD5 % Max Inhibition: 3.75%
[2]; [6]
  IC50: > 45 µM
  SCD1 % Max Inhibition: 22.28%
[3]
  OLE1 % Max Inhibition: 9.74%

## CCN1C(=O)CN(C)c2ccc(-c3noc(C4CCN(C(=O)CNC(=O)c5ccccc5)CC4)n3)cc21 [Compound 298]
[1]; [7]
  IC50: > 45 µM
  SCD5 % Max Inhibition: 21.3%
[2]; [8]
  IC50: > 45 µM
  SCD1 % Max Inhibition: 92.3%
[3]
  OLE1 % Max Inhibition: 6.6%

## Cc1nn(C)c2cc(-c3noc(C4CCN(C(=O)OC(C)(C)C)CC4)n3)ccc12 [Compound 300]
[1]; [7]
  IC50: > 45 µM
  SCD5 % Max Inhibition: 36.0%
[2]; [8]
  IC50: > 45 µM
  SCD1 % Max Inhibition: 78.1%
[3]
  OLE1 % Max Inhibition: 79.7%

## Cc1nn(C)c2cc(-c3nsc(C4CCN(C(=O)CNC(=O)c5cccc(C#N)c5)CC4)n3)ccc12 [Compound 322]
[1]; [7]
  IC50: > 45 µM
  SCD5 % Max Inhibition: 29.8%
[2]; [8]
  IC50: > 45 µM
  SCD1 % Max Inhibition: 73.6%
[3]
  OLE1 % Max Inhibition: 9.0%

## CNC(=O)c1cccc(NC(=O)N2CCC(Oc3ccccc3Cl)CC2)c1 [Compound A939572, reference compound]
[1]
  half-maximal inhibitory concentration (IC50), SCD5 humanized strain: low nanomolar
[2]
  half-maximal inhibitory concentration (IC50), SCD1 humanized strain: low nanomolar
[3]
  Sensitivity of yeast expressing OLE1 to known SCD1/SCD5 inhibitors: resistant

## Cc1nnc(-c2ccc(N3CCC(Oc4ccccc4C(F)(F)F)CC3)nn2)s1 [MF-438, reference compound]
[1]
  half-maximal inhibitory concentration (IC50), SCD5 humanized strain: low nanomolar
[2]
  half-maximal inhibitory concentration (IC50), SCD1 humanized strain: low nanomolar
[3]
  Sensitivity of yeast expressing OLE1 to known SCD1/SCD5 inhibitors: resistant

## CCOc1ccc(-c2noc(C3CCN(C(=O)[C@@H]4CC[C@H](c5ccccc5)N4)CC3)n2)cc1OC [compound 119]
[1]; [5]
  IC50: > 45 µM
[2]; [6]
  IC50: > 45 µM
[4]; percent above DMSO, read-out: α-Syn Emax
  Emax: 61%
[4]; read-out: α-Syn EC50
  EC50: 20.9 µM
